Test results published in patent US20240324596A1, “SUBSTITUTED TOLYL FUNGICIDES” (FMC CORPORATION, priority 2023, published 2024).

System: not given
Experiment: not given
Settings: not given

melting point | Compound
131 to 134 °C | COC(=O)NCc1cc(-c2ccn(-c3c(F)cc([N+](=O)[O-])cc3F)n2)ccc1C [Compound 1, methyl N-[[5-[1-(2,6-difluoro-4-nitrophenyl)-1H-pyrazol-3-yl]-2-methyl-phenyl]methyl]carbamate]
168 to 171 °C | COC(=O)NCc1cc(-c2ccn(-c3c(F)cc(N)cc3F)n2)ccc1C [Compound 5, methyl N-[[5-[1-(4-amino-2,6-difluorophenyl)-1H-pyrazol-3-yl]-2-methyl-phenyl]methyl]carbamate]
138 to 139 °C | COC(=O)NCc1cc(-c2ccn(-c3c(F)cc(Br)cc3F)n2)ccc1C [Compound 7, methyl N-[[5-[1-(4-bromo-2,6-difluorophenyl)-1H-pyrazol-3-yl]-2-methyl-phenyl]methyl]carbamate]
178 to 180 °C | COC(=O)NCc1cc(-c2ccn(-c3c(F)cc(O)cc3F)n2)ccc1C [Compound 10, methyl N-[[5-[1-(2,6-difluoro-4-hydroxyphenyl)-1H-pyrazol-3-yl]-2-methylphenyl]methyl]carbamate]
133 to 134 °C | COC(=O)NCc1cc(-c2ccn(-c3c(F)cc(OC(C)C)cc3F)n2)ccc1C [Compound 14, methyl N-[[5-[1-[2,6-difluoro-4-(1-methylethoxy)phenyl]-1H-pyrazol-3-yl]-2-methylphenyl]methyl]carbamate]
156 to 160 °C | COC(=O)NCc1cc(-c2ccn(-c3c(F)cc(C=O)cc3F)n2)ccc1C [Compound 67, methyl N-[[5-[1-(2,6-difluoro-4-formylphenyl)-1H-pyrazol-3-yl]-2-methyl-phenyl]methyl]carbamate]
120 to 122 °C | COC(=O)NCc1cc(-c2ccn(-c3c(F)cc(C(=O)OC)cc3F)n2)ccc1C [Compound 70, methyl 3,5-difluoro-4-[3-[3-[[(methoxycarbonyl)amino]methyl]-4-methyl-phenyl]-1H-pyrazol-1-yl]benzoate]
183 to 184 °C | COC(=O)NCc1cc(-c2ccn(-c3c(F)cc(CO)cc3F)n2)ccc1C [Compound 71, methyl N-[[5-[1-[2,6-difluoro-4-(hydroxymethyl)phenyl]-1H-pyrazol-3-yl]-2-methylphenyl]methyl]carbamate]
166 to 170 °C | COC(=O)NCc1cc(-c2ncn(-c3c(F)cc(Cl)cc3F)n2)ccc1C [Compound 105]
144 to 148 °C | COC(=O)NCc1cc(-c2cnn(-c3c(F)cc(N)cc3F)n2)ccc1C [Compound 115, methyl N-[[5-[2-(4-amino-2,6-difluorophenyl)-2H-1,2,3-triazol-4-yl]-2-methylphenyl]methyl]carbamate]
108 to 112 °C | COC(=O)NCc1cc(-c2cnn(-c3c(F)cc(Cl)cc3F)n2)ccc1C [Compound 117, methyl N-[[5-[2-(4-chloro-2,6-difluorophenyl)-2H-1,2,3-triazol-4-yl]-2-methylphenyl]methyl]carbamate]
152 to 156 °C | COC(=O)NCc1cc(-c2cnn(-c3c(F)cc([N+](=O)[O-])cc3F)n2)ccc1C [Compound 118, methyl N-[[5-[2-(2,6-difluoro-4-nitrophenyl)-2H-1,2,3-triazol-4-yl]-2-methyl-phenyl]methyl]carbamate]
174 to 178 °C | COC(=O)NCc1cc(-c2cn(-c3c(F)cc([N+](=O)[O-])cc3F)nn2)ccc1C [Compound 132, methyl N-[[5-[1-(2,6-difluoro-4-nitrophenyl)-1H-1,2,3-triazol-4-yl]-2-methylphenyl]methyl]carbamate]

System: Puccinia recondita f. sp. tritici
Experiment: Test B: preventive spray on wheat seedlings, wheat leaf rust disease rating
Type: in vivo
Settings: 192 h, 100 = 100% disease control, 0 = no control
Description: (§1) General protocol for preparing test suspensions for Tests A-F: the test compounds were first dissolved in acetone in an amount equal to 3% of the final volume and then suspended at the desired concentration (in ppm) in acetone and purified water (50/50 mix by volume) containing 250 ppm of the surfactant PEG400 (polyhydric alcohol esters). The resulting test suspensions were then used in Tests A-F.
The test solution was sprayed to the point of run-off on wheat seedlings. The following day the seedlings were inoculated with a spore suspension of Puccinia recondita f. sp. tritici (the causal agent of wheat leaf rust) and incubated in a saturated atmosphere at 20° C. for 24 h, and then moved to a growth chamber at 20° C. for 7 days, after which time disease ratings were made.
(§2) A rating of 100 indicates 100% disease control and a rating of 0 indicates no disease control (relative to the controls). A dash (-) indicates the compound was not tested.

Compound | pest or weed control at 10 ppm
COC(=O)NCc1cc(-c2ncn(-c3c(F)cc(Cl)cc3F)n2)ccc1C [Compound 105] | 100%

System: Phakopsora pachyrhizi
Experiment: Test D: preventive spray on soybean seedlings, Asian soybean rust disease rating
Type: in vivo
Settings: 216 h, 100 = 100% disease control, 0 = no control
Description: as §1
The test solution was sprayed to the point of run-off on soybean seedlings. The following day the seedlings were inoculated with a spore suspension of Phakopsora pachyrhizi (the causal agent of Asian soybean rust) and incubated in a saturated atmosphere at 22° C. for 24 h and then moved to a growth chamber at 22° C. for 8 days, after which time visual disease ratings were made.
as §2

Compound | pest or weed control at 10 ppm
COC(=O)NCc1cc(-c2ncn(-c3c(F)cc(Cl)cc3F)n2)ccc1C [Compound 105] | 92%
